Assay results from a melting point compilation (Tetko et al.; mined from patent text by program, amines drawn as free bases though some values may be those of a salt).

SMILES	melting point
CNC1Oc2cc(Cl)cc(-c3ccc(Cl)cc3Cl)c2O1 (stereo not given)	> 250 °C
O=C1Cc2ccccc2C(c2ccccc2Cl)N1 (stereo not given)	180 to 182 °C
CCCCCCc1ccc(C(=O)Oc2ccc(C(=O)O)cc2)cc1	162 °C
CC1(CN2CCN(c3cccc4c3OCCO4)CC2)N=C(c2ccccc2)NC1=O (stereo not given)	80 to 85 °C
CCCCCCCCCCCCCCCCn1c2cc(Br)ccc2c2ccc(Br)cc21	85 to 86 °C
OC(CNc1ncnc2nc[nH]c12)CN1CCN(C(c2ccc(F)cc2)c2ccc(F)cc2)CC1 (stereo not given)	140 to 170 °C
Cc1nn(C)cc1C(=O)NC(C#N)c1ccco1 (stereo not given)	122 °C
COC(=O)c1cc(C)nc(C)c1	45 to 47 °C
Cc1cc(CN2CCOCC2)cc2c1Cc1c(-c3ccsc3)n[nH]c1-2	232 to 233 °C
COC1=Nc2cc(OC)c(F)cc2C(c2ccccc2Cl)=NC1C(C)=O (stereo not given)	172 to 174 °C
CCOc1ccc2c(c1)n(C1CCCCC1)c(=O)n2S(=O)(=O)c1ccc(C(=O)O)cc1OC	205 °C
COC(=O)CCCc1cc2cc(Cl)ccc2n1S(=O)(=O)c1ccc2c(c1)CCC(C)(C)O2	126 to 129 °C
O=c1oc(-c2ccc(OCc3cccnc3)cc2)cc(O)c1SCCc1ccccc1	178 to 179 °C
CCOP(=O)(OCC)C1(P(=O)(OCC)OCC)CC(C(=O)c2ccccc2[N+](=O)[O-])=NN1	111 to 112 °C
OC(COc1ncnc2nc[nH]c12)CN1CCN(C(c2ccccc2)c2ccccc2)CC1 (stereo not given)	115 °C
CC(C)(C)C(O)C(C(Sc1ccccc1)c1ccc(F)cc1)n1cncn1 (stereo not given)	171 °C
COc1ccc(N2CCN(c3c(C)c(C)c4c(c3C)CC(C)(CNC(C)=O)O4)CC2)cc1 (stereo not given)	146 to 152 °C
c1cnc2c(OCCOc3nccnc3N3CCNCC3)cccc2c1	98 to 100 °C
CO[C@@H]1CN(CC2OCCO2)CC[C@@H]1NC(=O)c1cc(Cl)c(N)c2c1OCC2 (relative stereo)	149 °C
COc1cc(CCc2c(C=O)ccc(OC)c2OC)cc(OC)c1	88 to 89 °C

SMILES	melting point
COc1ccc(CSc2nnc(-c3ccnc(NC(=O)CCc4ccccc4)c3)o2)cc1C(F)(F)F	180 to 181 °C
CCOC(=O)c1cc([N+](=O)[O-])ccc1NC(=O)OC(C)(C)C	118 to 121 °C
CCN(CC)C(=O)C1=NN(c2ccccc2)C(C(N)=O)=NN1c1ccccc1	239 to 240 °C
COc1ccc2c(c1)S(=O)(=O)N(CCCN1CCN(c3ncccn3)CC1)C(=O)N2	178 °C
CC(C)CCNc1nc(-c2ccccc2)c(-c2ccnc(Nc3ccccc3)n2)s1	170 to 172 °C
Cc1nc(NC(=O)NS(=O)(=O)c2cccc3c2nnn3C)nc2c1CCO2	234 to 240 °C
COc1ccc(C(F)(F)C(F)(F)F)cc1C(C)=O	47 °C
CCCCc1ccc(NS(=O)(=O)c2ccc(N3CCNC3=O)cc2)cc1	203 to 205 °C
C#CCOC(=O)c1cc(Br)c(O)c(OC)c1	121 to 122 °C
CON=C1CCC(C)(C)c2cc(C)c(-c3cc(C=C4SC(=O)NC4=O)ccc3Cl)cc21	252 to 254 °C
CC(=O)NCC1CN(c2ccc(N3CCN(c4nncs4)CC3)c(F)c2)C(=O)O1 (stereo not given)	206 to 208 °C
Oc1ccc2c(c1)CCCC2Cc1c[nH]cn1 (stereo not given)	200 to 205 °C
Oc1ccc2c(c1)CCC(CNCC(O)c1ccc(Cl)cc1)C2 (stereo not given)	150 to 153 °C
COc1cc(OC)c2c(=O)[nH]c(-c3cccc(N4CCN(C(C)C(N)=O)CC4)n3)nc2c1 (stereo not given)	149 to 150 °C
CCCCOc1ccc2cc(Br)ccc2c1	48 to 50 °C
N#Cc1cnc2cc3ccccc3cc2c1Nc1ccc(Oc2ccccc2)cc1	250 to 251 °C
COc1cc(Nc2c(C#N)cnc3cc(C#CCN4CCN(C)CC4)sc23)c(Cl)cc1Cl	172 to 173 °C
CCOC(=O)CCCN(C(=O)CCC1CCCCC1)C1N=C(c2ccccc2)c2ccccc2N(C)C1=O (stereo not given)	103 to 105 °C
CCCCCCCCCCCCCCOc1ccc(CN(C(=O)NC)c2cccc(COC(=O)NC)c2)cc1	107 to 109 °C
COc1ccc(CC(C)N)cc1S(N)(=O)=O (stereo not given)	180 °C

Other lines, results leading:

melting point	SMILES
150 to 160 °C	Cc1ccc(S(=O)(=O)N2CCCC2c2nnnn2[C@@](C)(Cc2ccc([N+](=O)[O-])cc2)C(=O)O)cc1 (stereo not given in full)
173 to 174 °C	COc1cc(C(C)C)c2c(c1)S(=O)(=O)N(COc1cc(C(F)(F)F)nn1-c1ccc(Cl)cn1)C2=O
95 to 97 °C	CCCc1c(OCC(=O)NCCCCc2cccnc2)ccc(C(C)=O)c1O
> 225 °C	CC(C)(C)c1cc(C=C2SC(=S)N(N)C2=O)ccc1O
177 to 179 °C	COc1cc(Nc2c(C#N)cnc3cc(C#CCCN(C)C)c(OC)cc23)c(Cl)cc1Cl
307 to 308 °C	O=C(O)c1cn(C2CC2)c2cc(Cl)ccc2c1=O
128 to 130 °C	CCOC(=O)c1c(S(=O)(=O)Cl)nn2c(C)cc(C)nc12
250 to 252 °C	Cc1cccc2oc(C(=O)Nc3ccc(-c4ccc(S(=O)(=O)NC(C(=O)O)C(C)C)cc4)cc3)c(C)c12 (stereo not given)
164 to 166 °C	CCOC(=O)C1=C(C)N(C(C)=O)C(c2csc(C)n2)=NC1C1(F)C=CC=CC1Cl (stereo not given)
166 to 168 °C	CONC(=O)c1[nH]c(C)c(-c2nc3ccc(Oc4ccccc4)cc3[nH]2)c1C
137 to 140 °C	CC(C)(C)CC(C)(C)n1scc(Cl)c1=O
182 to 185 °C	COc1cc2c3c(n(C)c(=O)c2cc1OC)-c1cc2c(cc1C3=CCCCCCBr)OCO2
172 °C	Cc1cc(N)nc(CCC(=O)Nc2cc(I)cnc2N)c1
95 to 98 °C	CCCNc1c(C#N)cnn1-c1ccc(Cl)c(Cl)c1Cl
244 °C	O=C(c1ccc(OC(F)F)c2oc3ccccc3c12)[NH+]([O-])c1ccncc1 (stereo not given)
146 to 147 °C	Oc1ccc2c(c1)OCC(c1ccc(F)cc1)C2c1ccc(OCCN2CCCCC2)cc1 (stereo not given)
69 to 69.5 °C	C[C@H](CSC(=O)c1ccccc1)C(=O)N1CSC[C@H]1C(=O)OCOC(=O)C(C)(C)C
> 250 °C	COc1cccc2c(OCc3ccc(C(C)C)cc3)ccc(C=NNC(=O)c3ccc(O)c(Cl)c3)c12
> 250 °C	NC(=O)c1nc(-c2ccccc2)c(-c2ccc(=O)[nH]n2)s1
182 to 185 °C	CC1(C)OC(=O)C(CO)(c2ccc(Cl)cc2Cl)O1 (stereo not given)
208 to 209 °C	COc1ccc(C=CC(=O)Nc2cnc3ccc(Cl)cc3c2-c2ccccc2Cl)cc1OC
157 to 159 °C	CCOC(=O)N1c2cc(OC)c(OC)cc2[C@H](NC(=O)Cc2cc(C(F)(F)F)cc(C(F)(F)F)c2)C[C@@H]1C (relative stereo)
79 to 80.5 °C	CCOC(=O)C1(C(=O)Nc2ccc(F)cc2F)CC1
163 to 166 °C	CS(=O)(=O)Nc1cccc(Nc2nc(NCCO)c3nc[nH]c3n2)c1
250 to 253 °C	O=C(O)C=C1SC(=Nc2cccc3ccccc23)N(c2cccc3ccccc23)C1=O
153 to 155 °C	CCCCC1(CCCC)CS(=O)(=O)c2ccc(N(C)C)cc2[C@@H](c2ccc(OCc3cccc(CN(CC(=O)O)CC(=O)O)n3)cc2)[C@H]1O
168 °C	COc1cc(-c2ncn(C)c2-c2ccc(C(F)(F)F)cc2)cc(OC)c1OC
90 °C	COc1ccc(CCN(C)CCOc2ccc(NC(=O)c3cccc4c3Nc3ccccc3S4)cc2)cc1OC

melting point	SMILES
128 °C	OC(CN1CCNC1=S)c1cccc(Cl)c1 (stereo not given)
179 °C	OCC1OC(n2cnc3c(NCc4ccc(Br)cc4)ncnc32)C(O)C1O (stereo not given)
345 to 348 °C	O=C(O)c1ccc2[nH]c3c(c2c1)CC(N1C(=O)c2ccccc2C1=O)CC3 (stereo not given)
157 to 158 °C	CC(CSC(=S)c1ccccc1)C(=O)N1CCCC1C(=O)O (stereo not given)
55 to 56 °C	COc1cccc(CC(=S)N2CCCCC2)c1
175 to 177 °C	Cc1cccc(N2CCN(CCCCc3ccc(C(CCC(=O)O)=NO)cc3)CC2)c1
33 to 34 °C	CC(C)(C)c1ccc(/C=C/CO[Si](C)(C)C(C)(C)C)cc1[N+](=O)[O-]
107 to 108 °C	COc1ccc2c(c1OC)CCC(C#N)C2C#N (stereo not given)
148 to 149 °C	COc1ccc(C(O)(Cc2ccncc2)c2ccccc2)cc1OC1CCCC1 (stereo not given)
163 to 166 °C	COc1ccc(-c2cc3ccc(OC)cc3n2C)cc1
188 to 190 °C	O=C(c1ccc(F)cc1)C1CCN(CC2CC(c3ccc4[nH]c(=O)oc4c3)=NO2)CC1 (stereo not given)
168 °C	Cc1ccc(CN(C)CCOc2ccc(NC(=O)c3cccc4c(=O)c5ccccc5[nH]c34)cc2)cc1
155 to 156 °C	CCC(C)n1c(=O)ccc2cnc(Nc3ccccc3)nc21 (stereo not given)
144 to 145 °C	CCCCONc1ncn(-c2c(C)cccc2C)c(=O)n1
160 to 162 °C	O=C(NCCN1CCN(C(c2ccccc2)c2ccncc2)CC1)C1CSC(c2cccnc2)N1 (stereo not given)
124 to 125 °C	O=C(N[C@@H](CCC1CCCCC1)[C@@H](O)[C@@H](O)CN1CCOCC1)OCc1ccccc1
245 to 246 °C	Cc1cc2c(=O)c(-c3nnnn3C)cn(C)c2cc1C
152 to 153 °C	COc1cccc2c1CCN(C)C2CN1CCC(c2ccccc2)C1 (stereo not given)
149 to 150 °C	CC(C)c1cc(O)cc2c1C(=O)N(CCl)S2(=O)=O
94 to 96 °C	CCOC(=O)C(O)=Cc1ccc(Cc2ccc(F)cc2)cn1
111 to 112 °C	C=C1CC2C(CCC3(C)C2CCC3(OC(=O)CCCCC)C(C)=O)C2(COC(C)=O)CCC(=O)C=C12 (stereo not given)
78 to 79 °C	COC(=O)CCCC(=O)c1cc2c(c(S(=O)(=O)Cl)c1)OCC2
151 °C	CC1(C)OCC(COc2cc(N)c([N+](=O)[O-])cc2I)O1 (racemic)
241 °C	FC(F)(F)c1cccc(-c2cc(C(F)(F)F)n3ncc(-c4ccncc4)c3n2)c1
228 to 229 °C	O=C1N(C(c2ccccc2)c2ccccc2)c2ccc(F)cc2C12COc1cc3c(cc12)CCO3 (stereo not given)
140 °C	COC(=O)c1cnc2c(O)cccc2c1
136 to 137 °C	Cc1cc(OCc2oc(-c3ccc(C(F)(F)F)cc3)nc2C)ccc1OCC(=O)O
